In brackets after ≈: the same amount, converted by molar mass.
How the values were obtained:
Staphylococcus aureus [1] = test: In vitro percent inhibition against Pol III of Staphylococcus aureus at a concentration of 500 uM
Bacillus subtilis = test: Tested for in vitro anti bacterial activity against Bacillus subtilis ATCC- 6633; type: functional
[2] = Tested for in vitro antibacterial activity against DNA polymerase III; parameters: species or system Staphylococcus aureus
Enterococcus faecium [3] = test: Tested for in vitro anti bacterial activity against Enterococcus faecium RLAI (ampicillin and imipenem resistant), growth unaffected at highest level; type: functional
Staphylococcus aureus [4] = test: Tested for in vitro anti bacterial activity against Staphylococcus aureus MB2985 […]; type: functional
Streptococcus pneumoniae [5] = test: Tested for in vitro anti bacterial activity against Streptococcus pneumoniae CL5350 and growth affected but tested at highest level of inhibition; type: functional
[6] = Tested for in vitro antibacterial activity against DNA polymerase III of Staphylococcus aureus
Enterococcus faecium [7] = test: Tested for in vitro anti bacterial activity against Enterococcus faecium RLAI (ampicillin and imipenem resistant); type: functional
Streptococcus pneumoniae [8] = test: Tested for in vitro anti bacterial activity against Streptococcus pneumoniae CL5350; type: functional

| inhibition (Staphylococcus aureus [1]) | Compound | MIC (Bacillus subtilis) | IC50 [2] | MIC (Staphylococcus aureus [4]) | MIC (Enterococcus faecium [7]) | also measured |
| --- | --- | --- | --- | --- | --- | --- |
| 20% | CSc1cc(Nc2ccc(C)c(I)c2)nc(N)n1 |  |  |  |  |  |
| 88% | CCc1cc(Nc2cc(Oc3cccc(C)c3)nc(N)n2)ccc1C |  |  |  |  | IC50 [6]: 54 µM |
| 97% | CCc1cc(Nc2cc(Oc3ccc(Br)cc3)nc(N)n2)ccc1C |  |  |  |  | IC50 [6]: 10 µM |
| 21% | Cc1cc(Nc2ccc(C)c(I)c2)nc(N)n1 |  |  |  |  |  |
| 13% | CCc1cc(Nc2cc(Oc3ccc(Cl)cc3)nc(N)n2)ccc1C |  |  |  |  |  |
| 33% | CCc1cc(Nc2cc(Oc3ccc(F)cc3)nc(N)n2)ccc1C |  |  |  |  |  |
| 27% | Cc1ccc(Nc2cc(N(C)C)nc(N)n2)cc1C |  |  |  |  |  |
| 2% | Cc1ccc(Nc2cc(Sc3ccccc3)nc(N)n2)cc1I |  |  |  |  |  |

Further lines, the compound ahead of its results:

| Compound | inhibition (Staphylococcus aureus [1]) | MIC (Bacillus subtilis) | IC50 [2] | MIC (Staphylococcus aureus [4]) | MIC (Enterococcus faecium [7]) | also measured |
| --- | --- | --- | --- | --- | --- | --- |
| Nc1nc(Cl)cc(Nc2ccc3c(c2)CCC3)n1 |  | 3 µg/mL (≈ 11.5 µM) | 119 µM | > 26 µg/mL |  | MIC (Enterococcus faecium [3]): > 26 µg/mL; MIC (Streptococcus pneumoniae [5]): > 26 µg/mL |
| Cc1ccc(Nc2cc(Cl)nc(N)n2)cc1I |  | 5 µg/mL (≈ 13.9 µM) | 51 µM | > 36 µg/mL | 36 µg/mL (≈ 99.8 µM) | MIC (Streptococcus pneumoniae [8]): 18 µg/mL (≈ 49.9 µM) |
| Nc1nc(Cl)cc(Nc2ccc(Cl)c(Cl)c2)n1 |  | 7 µg/mL (≈ 24.2 µM) | 98 µM | 29 µg/mL (≈ 100 µM) | 29 µg/mL (≈ 100 µM) | MIC (Streptococcus pneumoniae [5]): > 29 µg/mL |
| Cc1ccc(Nc2cc(S)nc(N)n2)cc1I | 54% |  |  |  |  |  |
| Cc1ccc(Nc2cc(Cl)nc(N)n2)cc1Cl |  | 13 µg/mL (≈ 48.3 µM) | 126 µM | 27 µg/mL (≈ 100 µM) | 27 µg/mL (≈ 100 µM) | MIC (Streptococcus pneumoniae [8]): 27 µg/mL (≈ 100 µM) |
| Cc1ccc(Nc2cc(Cl)nc(N)n2)cc1C |  | 6 µg/mL (≈ 24.1 µM) | 115 µM | > 25 µg/mL |  | MIC (Enterococcus faecium [3]): > 25 µg/mL; MIC (Streptococcus pneumoniae [5]): > 25 µg/mL |
| Cc1ccc(Nc2cc(Cl)nc(N)n2)cc1Br |  | 8 µg/mL (≈ 25.5 µM) | 94 µM |  | 31 µg/mL (≈ 98.9 µM) | MIC (Streptococcus pneumoniae [8]): 31 µg/mL (≈ 98.9 µM) |
| CC(C)(C)c1cccc(Nc2cc(Cl)nc(N)n2)c1 |  | 7 µg/mL (≈ 25.3 µM) | 89 µM | 7 µg/mL (≈ 25.3 µM) | 14 µg/mL (≈ 50.6 µM) | MIC (Streptococcus pneumoniae [8]): 14 µg/mL (≈ 50.6 µM) |
| CCc1cc(Nc2cc(Cl)nc(N)n2)ccc1C |  | 3 µg/mL (≈ 11.4 µM) | 53 µM | > 26 µg/mL | 13 µg/mL (≈ 49.5 µM) | MIC (Streptococcus pneumoniae [8]): 26 µg/mL (≈ 99 µM) |

Source: ChEMBL document CHEMBL1133915, “Design and synthesis of novel antibacterial agents with inhibitory activity against DNA polymerase III” (Bioorg Med Chem Lett, 2001)
